Measured values: patent US20150160193A1, “TUMOR CELL ISOLATION/PURIFICATION PROCESS AND METHODS FOR USE THEREOF” (DIATECH ONCOLOGY, priority 2012, published 2015)
Where two headings read alike, the source gives them in different places.

Columns and labels:
[1] = system: Purified breast cancer cells from 67 patient (Pt) biopsies; assay: MiCK assay of drug-induced apoptosis, breast cancer specimens; format: cell-based, human; conditions: for KU Mean / KU Median: kinetic units of apoptosis; for KU Mean: mean over N patient samples (at least 9 per drug); for KU Median: median over N patient samples; for Mean Difference (95% CI) of KU vs Abraxane: drug minus Abraxane; for Mean Difference (95% CI) of KU vs Vincristine: drug minus Vincristine
Experimental: Apoptosis(KU)=(VmaxDrug Candidate Treated−VmaxControl)×60×X/(ODcontrol−ODblank)
Within 24 to 48 hours of collection, the specimen was minced, digested with 0.25% trypsin and 0.08% DNase for 1-2 hours at 37 C.°, and then filtered through a 100 micrometer cell strainer. When necessary, non-viable cells were removed by density gradient centrifugation. The cell suspension was then incubated for 30 min at 37° C. in a tissue culture flask to remove macrophages by adherence. For epithelial tumors lymphocytes were removed by 30 minute incubation with CD2 antibody conjugated magnetic beads for T lymphocytes and CD19 antibody conjugated magnetic beads for B lymphocytes. Remaining macrophages were removed, if necessary, using CD14 antibody conjugated magnetic beads. The final cell suspension was plated into a 96-well half-area plate, 120 microliter aliquot per well. The plate was incubated overnight at 37° C. with 5% carbon dioxide humidified atmosphere. 5×10^4 to 1.5×10^5 cells were seeded per well depending on the cell volume to give adequate well-bottom coverage.
Within 24 to 48 hours of collection, the specimen was treated as follows in order to purify and isolate cells from solid tumors: • Take the specimen out of the transport tube. • Put in a petri dish in 13 ml of PBS+high concentration of antibiotics (200 units/ml Penicillin+200 μg/ml streptomycin) and take measurements and picture of the specimen. […] In that case, one may make the determination to do a “pre-filtration” using sterile gauze over a 50 ml tube. Then proceed with the cell strainer filtration process referenced above. • Centrifuge the filtered cell suspension 1500 RPM 5 min • Discard the supernatant. To the pellet, add 5 ml of red blood cell lysis solution (standard NH4Cl containing lysis solution: Nh4Cl0.15M+KHCO3 10 mM+EDTA-4Na 0.1 mM, pH 7.2), incubate 2-3 min and add 5 ml of RPMI 10% FBS. • Centrifuge 5 min 1500 RPM. Resuspend the pellet in RPMI 10% FBS (1-10 ml depending on the pellet size). • Collect the second fraction in the enzyme and repeat the steps above. • Check the viability of all fractions and pool. Do a cytospin stain with Wright Giemsa to verify the cell content of the population. NOTE: this is done numerous times during the process of purification. • 3) When necessary, non-viable cells were removed by density gradient centrifugation. • Density gradient centrifugation (optiprep): first layer=2 ml cells+4.45 ml optiprep 40% in RPMI, second layer=optiprep 22.5% in RPMI, 3rd layer=0.5 ml of RPMI. Centrifuge at 2000 RPM for 20 min • Collect the viable cell layer, add 10 ml of RPMI 10% FBS, centrifuge at 1500 RPM for 5 min • Resuspend the pellet in RPMI 10% FBS (volume depends on the pellet size and on the next step required). • If mucin is present in the specimen: resuspend the pellet in 10 ml of PBS+20 mM DTT and incubate at 4° C. for 30 min to disintegrate the mucin. Wash with RPMI 1500 rpm for 5 min Resuspend the pellet in RPMI 10% FBS. • If the specimen is highly necrotic with presence of debris: Percoll 20% in HBSS, centrifuge at 800×g for 10 min • 4) The cell suspension was then incubated for 20 min at 37° C. in a tissue culture flask to remove macrophages by adherence. • The size and quantity of the flask and the volume used depends on the amount of cells.

[2] = system: neoplastic cells collected from spleen and abdominal tumor biopsy specimens; assay: MiCK assay, patient specific cancer cell testing (Example 10); format: cell-based, human
Experimental: The experiments were conducted on neoplastic cells collected from spleen and abdominal tumor biopsy specimens from a person. The tumor specimens were of an unknown primary. The experiment consisted of using a MiCK assay, according to the present disclosure, to test the effectiveness of 37 potential anti-cancer drugs, combinations of these drugs, and various concentrations of these drugs.
Apoptotic readings greater than 5.0KU in the MiCK assay are considered to be highly sensitive and are associated with a good clinical response. […] It should be noted that the alkylating agents cyclophosphamide and ifosfamide require hepatic metabolic transformation to their active metabolite, 4HC and 4HI respectively, and therefore cannot be tested directly in vitro. For the MiCK assay their active metabolites, 4HC and 4HI respectively were used.

[3] = KU compared per patient, % of 11 patients
[4] = person, tumor of unknown primary, maximum apoptotic response over the concentrations tested
[5] = KU compared per patient, % of 35 patients
[6] = KU compared per patient, % of 14 patients

SMILES | KU Mean [1] [KU] | KU Median [1] [KU] | Mean Difference (95% CI) of KU vs Abraxane ([1]; patient pairwise comparison) [KU] | Max Resp. (KU) [2, 4] [KU] | Mean Difference (95% CI) of KU vs Vincristine ([1]; patient pairwise comparison) [KU] | also measured
O=C1[O][Pt]2([NH][C@@H]3CCCC[C@H]3[NH]2)[O]C1=O [Oxali, oxaliplatin] | 1.9 | 1.8 | – | – | – | Carbo and Cisplatin and Oxali < 1 [1, 3]: (9%); Max (Carbo or Cisplatin) = Oxali +/− 0.57 and both > 1 [1, 3]: (36%); Max (Carbo or Cisplatin) > Oxali by more than 0.57 and Max (Carbo or Cisplatin) > 1 [1, 3]: (36%); Oxali > Max (Carbo or Cisplatin) + 0.57 [1, 3]: (9%); Mean Difference (95% CI) of KU vs Carbo ([1]; patient pairwise comparison, drug minus Carbo): 0.34 KU; % >1 ([1]; share of samples with KU >1): 82%; % >3 ([1]; share of samples with KU >3): 9%; Max Resp. (KU) [2]: 6.7 KU
CC(=O)O[C@H]1C(=O)[C@@]2(C)[C@H]([C@H](OC(=O)c3ccccc3)[C@]3(O)C[C@H](OC(=O)[C@H](O)[C@@H](NC(=O)c4ccccc4)c4ccccc4)C(C)=C1C3(C)C)[C@]1(OC(C)=O)CO[C@@H]1C[C@@H]2O [Taxol, paclitaxel] | 2.1 | 1.9 | 1.20 | 1.6 | – | –
CC(=O)O[C@@]12CO[C@@H]1C[C@H](O)[C@@]1(C)C(=O)[C@H](O)C3=C(C)[C@@H](OC(=O)[C@H](O)[C@@H](NC(=O)OC(C)(C)C)c4ccccc4)C[C@@](O)([C@@H](OC(=O)c4ccccc4)[C@H]21)C3(C)C [Taxotere, docetaxel] | 2.1 | 1.9 | 0.98 | 2.3 | – | Taxol and Taxotere < 1 [1, 5]: (14%); Taxotere = Taxol +/− 0.57 and both > 1 [1, 5]: (17%); Taxotere > Taxol by more than 0.57 and Taxotere > 1 [1, 5]: (37%); Taxotere > Taxol by more than 0.57 and Taxotere > 1 ([1]; KU compared per patient, % of 35 patients, listed as docetaxel): 37%; Mean Difference (95% CI) of KU vs Taxol ([1]; patient pairwise comparison, drug minus Taxol): 0.05 KU
CC[C@]1(O)C[C@H]2CN(CCc3c([nH]c4ccccc34)[C@@](C(=O)OC)(c3cc4c(cc3OC)N(C=O)[C@H]3[C@@](O)(C(=O)OC)[C@H](OC(C)=O)[C@]5(CC)C=CCN6CC[C@]43[C@@H]65)C2)C1 [Vincristine, vincristine] | 1.1 | 1.0 | – | 0.9 | – | –
CCC1=C[C@@H]2CN(C1)Cc1c([nH]c3ccccc13)[C@@](C(=O)OC)(c1cc3c(cc1OC)N(C)[C@H]1[C@@](O)(C(=O)OC)[C@H](OC(C)=O)[C@]4(CC)C=CCN5CC[C@]31[C@@H]54)C2 [Vinor, vinorelbine] | 1.8 | 1.5 | – | 3.1 | 0.63 | Max (Vcr or Vnbl) > Vinor + 0.57 [1, 6]: (0%); Vcr and Vnbl and Vinor < 1 [1, 6]: (14%); Vinor = Max (Vcr or Vnbl) +/− 0.57 and both > 1 [1, 6]: (36%); Vinor > Max (Vcr or Vnbl) by more than 0.57 and Vinroel > 1 [1, 6]: (29%); Mean Difference (95% CI) of KU vs Vincristine ([1]; patient pairwise comparison, listed as vinorelbine): APOP>vincristine; Mean Difference (95% CI) of KU vs Vnbl ([1]; patient pairwise comparison, drug minus Vnbl): 0.14 KU
CC[C@]1(O)C[C@@H]2CN(CCc3c([nH]c4ccccc34)[C@@](C(=O)OC)(c3cc4c(cc3OC)N(C)[C@H]3[C@@](O)(C(=O)OC)[C@H](OC(C)=O)[C@]5(CC)C=CCN6CC[C@]43[C@@H]65)C2)C1 [Vnbl, Vinblastine] | 1.8 | 1.5 | – | 1.2 | 0.14 | –
